# Results taken from patent EP1019392B1, “TRICYCLIC AMIDES USEFUL FOR INHIBITION OF G-PROTEIN FUNCTION AND FOR TREATMENT OF PROLIFERATIVE DISEASES” (SCHERING CORPORATION, priority 1995, dated 1997).
# Where a name gives a salt, the structure may show the parent alone. Read-outs that look alike come from different tables or passages of the source.
# What was measured:
# [1] = target: T1, farnesyl protein transferase (FPT) (Rattus norvegicus, UniProt Q02293+Q04631); assay: In vitro enzyme assay: inhibition of farnesyl protein transferase (transfer of [3H]farnesyl to Ras-CVLS); format: biochemical; settings: partially purified rat brain FPT, Ras-CVLS
# T1 construct: were partially purified from rat brain by ammonium sulfate fractionation followed by Q-Sepharose; from tissue; host or cells: rat brain
# Protocol: • 1. In vitro enzyme assays: Inhibition of farnesyl protein transferase and geranylgeranyl protein transferase. […] Human farnesyl protein transferase was also expressed in E. coli, using cDNA clones encoding both the a and b subunits. […] Human farnesyl protein transferase was partially-purified from the soluble protein fraction of E. coli as described above. […] Two forms of val^12-Ha-Ras protein were prepared as substrates for these enzymes, differing in their carboxy terminal sequence. One form terminated in cysteine-valine-leucine-serine (Ras-CVLS) the other in cystein-valine-leucine-leucine (Ras-CVLL). Ras-CVLS is a substrate for the farnesyl protein transferase while Ras-CVLL is a substrate for geranylgeranyl protein transferase I. The cDNAs encoding these proteins were constructed so that the proteins contain an amino-terminal extension of 6 histidine residues. Both proteins were expressed in Escherichia coli and purified using metal chelate affinity chromatography. The radiolabelled isoprenyl pyrophosphate substrates, [^3H]farnesyl pyrophosphate and [^3H]geranylgeranyl pyrophosphate, were purchased from DuPont/New England Nuclear. […] The reaction was allowed to proceed for 30 minutes at room temperature and then stopped with 0.5 ml of 4% sodium dodecyl sulfate (SDS) followed by 0.5 ml of cold 30% TCA. Samples were allowed to sit on ice for 45 minutes and precipitated Ras protein was then collected on GF/C filter paper mats using a Brandel cell harvester. […] Percent inhibition was calculated relative to the DMSO vehicle control. The geranylgeranyl protein transferase I assay was essentially identical to the farnesyl protein transferase assay described above, with two exceptions: [^3H]geranylgeranylpyrophosphate replaced farnesyl pyrophosphate as the isoprenoid donor and Ras-CVLL was the protein acceptor. […] Cell-Based Assay: Transient expression of val^12-Ha-Ras-CVLS and val^12-Ha-Ras-CVLL in COS monkey kidney cells: Effect of farnesyl protein transferase inhibitors on Ras processing and on disordered cell growth induced by transforming Ras. COS monkey kidney cells were transfected by electroporation with the plasmid pSV-SPORT (Gibco/BRL) containing a cDNA insert encoding either Ras-CVLS or Ras-CVLL, leading to transient overexpression of a Ras substrate for either farnesyl protein transferase or geranylgeranyl protein transferase I, respectively (see above). Following electroporation, cells were plated into 6-well tissue culture dishes containing 1.5 ml of Dulbecco's-modified Eagle's media (GIBCO, Inc.) supplemented with 10% fetal calf serum and the appropriate farnesyl protein transferase inhibitors. After 24 hours, media was removed and fresh media containing the appropriate drugs was re-added. 48 hours after electroporation cells were examined under the microscope to monitor disordered cell growth induced by transforming Ras. Cells expressing transforming Ras become more rounded and refractile and overgrow the monolayer, reminiscent of the transformed phenotype. Cells were then photographed, washed twice with 1 ml of cold phosphate-buffered saline (PBS) and removed from the dish by scraping with a rubber policeman into 1 ml of a buffer containing 25 mM Tris, pH 8.0; 1 mM ethylenediamine tetraacetic acid; 1 mM phenylmethylsulfonyl fluoride; […] leupeptin; and 0.1 mM pepstatin. Cells were lysed by homogenization and cell debris was removed by centrifugation at 2000 x g for 10 min. Cellular protein was precipitated by addition of ice-cold trichloroacetic acid and redissolved in […] of SDS-electrophoresis sample buffer. […] Proteins resolved on the gels were electroblotted onto nitrocellulose membranes for immunodetection. […] After washing, membranes were incubated for one hour at room temperature with a 1:5000 dilution of secondary antibody, rabbit anti-rat IgG conjugated to horseradish peroxidase, in PBS containing 1% fetal calf serum.
# [2] = tested on: Ras-CVLS processing in COS monkey kidney cells; assay: COS cell assay: inhibition of Ras-CVLS processing (Western blot); format: cell-based
# Text: • 1. In vitro enzyme assays: Inhibition of farnesyl protein transferase and geranylgeranyl protein transferase. Both farnesyl protein transferase (FPT) and geranylgeranyl protein transferase (GGPT) I were partially purified from rat brain by ammonium sulfate fractionation followed by Q-Sepharose (Pharmacia, Inc.) anion exchange chromatography essentially as described by Yokoyama et al (Yokoyama, K., et al., (1991), A protein geranylgeranyltransferase from bovine brain: Implications for protein prenylation specificity, Proc. Natl. Acad. Sci USA 88: 5302-5306, the disclosure of which is incorporated herein by reference thereto). Human farnesyl protein transferase was also expressed in E. coli, using cDNA clones encoding both the a and b subunits. The methods used were similar to those published (Omer, C. et al., (1993), Characterization of recombinant human farnesyl protein transferase: Cloning, expression, farnesyl diphosphate binding, and functional homology with yeast prenyl-protein transferases, Biochemistry 32:5167-5176). Human farnesyl protein transferase was partially-purified from the soluble protein fraction of E. coli as described above. […] Two forms of val^12-Ha-Ras protein were prepared as substrates for these enzymes, differing in their carboxy terminal sequence. One form terminated in cysteine-valine-leucine-serine (Ras-CVLS) the other in cystein-valine-leucine-leucine (Ras-CVLL). Ras-CVLS is a substrate for the farnesyl protein transferase while Ras-CVLL is a substrate for geranylgeranyl protein transferase I. The cDNAs encoding these proteins were constructed so that the proteins contain an amino-terminal extension of 6 histidine residues. Both proteins were expressed in Escherichia coli and purified using metal chelate affinity chromatography. The radiolabelled isoprenyl pyrophosphate substrates, [^3H]farnesyl pyrophosphate and [^3H]geranylgeranyl pyrophosphate, were purchased from DuPont/New England Nuclear. Several methods for measuring farnesyl protein transferase activity have been described (Reiss et al 1990, Cell 62: 81; Schaber et al 1990, J. Biol. Chem. 265: 14701; Manne et al 1990, PNAS 87: 7541; and Barbacid & Manne 1993, U.S. Patent No. 5,185,248). […] The reaction was allowed to proceed for 30 minutes at room temperature and then stopped with 0.5 ml of 4% sodium dodecyl sulfate (SDS) followed by 0.5 ml of cold 30% TCA. Samples were allowed to sit on ice for 45 minutes and precipitated Ras protein was then collected on GF/C filter paper mats using a Brandel cell harvester. Filter mats were washed once with 6% TCA, 2% SDS and radioactivity was measured in a Wallac 1204 Betaplate BS liquid scintillation counter. Percent inhibition was calculated relative to the DMSO vehicle control. The geranylgeranyl protein transferase I assay was essentially identical to the farnesyl protein transferase assay described above, with two exceptions: [^3H]geranylgeranylpyrophosphate replaced farnesyl pyrophosphate as the isoprenoid donor and Ras-CVLL was the protein acceptor. […] Cell-Based Assay: Transient expression of val^12-Ha-Ras-CVLS and val^12-Ha-Ras-CVLL in COS monkey kidney cells: Effect of farnesyl protein transferase inhibitors on Ras processing and on disordered cell growth induced by transforming Ras. COS monkey kidney cells were transfected by electroporation with the plasmid pSV-SPORT (Gibco/BRL) containing a cDNA insert encoding either Ras-CVLS or Ras-CVLL, leading to transient overexpression of a Ras substrate for either farnesyl protein transferase or geranylgeranyl protein transferase I, respectively (see above). Following electroporation, cells were plated into 6-well tissue culture dishes containing 1.5 ml of Dulbecco's-modified Eagle's media (GIBCO, Inc.) supplemented with 10% fetal calf serum and the appropriate farnesyl protein transferase inhibitors. After 24 hours, media was removed and fresh media containing the appropriate drugs was re-added.
# [3] = tested on: T24-BAG4 human bladder carcinoma cells expressing an activated H-ras gene; assay: Cell Mat Assay, T24 tumor cells; format: cell-based; settings: read-out: Tumor (T-24) IC50
# [4] = tested on: Normal human HEPM fibroblasts; assay: Cell Mat Assay, normal cell mat; format: cell-based; settings: normal monolayer
# [5] = tested on: DLD-1 (human colon carcinoma cells, ATCC # CCL 221); assay: In Vivo Anti-Tumor Studies, subcutaneous DLD-1 tumors; design: species or system athymic nu/nu female mice; settings: Mus musculus, DLD-1, po, QID, 4 weeks, range over the listed compounds; for inhibition in vivo at 10 mg/kg: 10 mg/kg p.o.; for inhibition in vivo at 50 mg/kg: 50 mg/kg p.o.
# Text: Tumor cells (5 X 10^5 to 8 X 10^6) of DLD-1 (human colon carcinoma cells, ATCC # CCL 221) are innolculated subcutaneously into the flank of 5-6 week o;d athymic nu/nu female mice.
# [6] = tested on: SW620-BAG human colon carcinoma cells expressing an activated K-ras gene; assay: Cell Mat Assay, SW620 tumor cells; format: cell-based
# [7] = tested on: DLD-1-BAG human colon carcinoma cells expressing as activated K-ras gene; assay: Cell Mat Assay, DLD-1 tumor cells; format: cell-based
Structure (SMILES),IC50 [3] [nM],IC50 [4] [nM],IC50 ([3]; Homo sapiens) [nM],"IC50 ([1]; Table 1, read-out: FPT IC50) [nM]","IC50 ([2]; Primates, COS) [nM]",other results
"O=C(Cc1cc[n+]([O-])cc1)N1CCC(=C2c3ncc(Br)cc3CCc3cc(Cl)cc(Br)c32)CC1 (single isomer, unassigned) [Example 7A]",< 1600,> 25000,–,–,–,"IC50 ([1]; FPT IC50, Table 1): > 100 nM; IC50 [2]: > 1000 nM; inhibition in vivo at 10 mg/kg [5]: 7 to 50%; inhibition in vivo at 50 mg/kg [5]: 35.4 to 83%"
"NC(=O)N1CCC(CC(=O)N2CCC(C3c4ccc(Cl)c(Br)c4CCc4cc(Br)cnc43)CC2)CC1 (single isomer, unassigned) [Example 13B]",–,–,< 1600,–,–,"IC50 ([6]; Homo sapiens, SW-620, Mat assay): > 3100 nM"
NC(=O)N1CCC(CC(=O)N2CCN([C@@H]3c4ccc(Cl)cc4CCc4cc(Br)cnc43)CC2)CC1 [Example 17],–,–,1600,43,350,"IC50 ([7]; Homo sapiens, DLD-1, Mat assay): 6250 nM; IC50 ([4]; Homo sapiens, Fibroblast): > 25000 nM"
O=C(Cc1cc[n+]([O-])cc1)N1CCC(C2c3ccc(Cl)c(Br)c3CCc3cc(Br)cnc32)CC1 (stereo not drawn) [14A • HCl salt],–,–,–,< 3.1,–,IC50 [2]: 15 nM
O=C(Cc1cc[n+]([O-])cc1)N1CCC(C2c3ccc(Cl)c(Br)c3CCc3cc(Br)cnc32)CC1 (stereo not drawn) [Example 14B],–,–,–,–,–,"IC50 ([1]; FPT IC50, Table 1): 5 nM"
O=C(Cc1cc[n+]([O-])cc1)N1CCN([C@@H]2c3ncc(Br)cc3CCc3cc(Cl)cc(Br)c32)CC1 [Example 11B],< 1600,> 25000,–,> 95,–,IC50 ([7]; Mat assay): 8000 nM; IC50 ([6]; Mat assay): 18000 nM
O=C(Cc1cc[n+]([O-])cc1)N1CCN(C2c3ccc(Cl)c(Br)c3CCc3cc(Br)cnc32)CC1 (stereo not drawn) [5 • HCl salt],–,–,–,3.8,10,–
O=C(Cc1cc[n+]([O-])cc1)N1CCN(C2c3ncc(Br)cc3CCc3cc(Cl)cc(F)c32)CC1 (stereo not drawn) [Example 21],–,–,–,8.4,420,–
NC(=O)N1CCC(CC(=O)N2CCC(C3c4ccc(Cl)cc4C=Cc4cc(Br)cnc43)CC2)CC1 (stereo not drawn) [Example 1],–,–,< 1600,< 34,–,"IC50 ([4]; Homo sapiens, Fibroblast): > 25000 nM; inhibition in vivo at 10 mg/kg [5]: 7 to 50%; inhibition in vivo at 50 mg/kg [5]: 35.4 to 83%"
NC(=O)N1CCC(CC(=O)N2CCC([C@@H]3c4ncc(Br)cc4CCc4cc(Cl)cc(Br)c43)CC2)CC1 [Example 10A],< 1600,8000,–,–,–,IC50 ([6]; Mat assay): 1600 nM
